“Also recorded” adds a separate entry of the source.
Legend:
[1] = tested on: Staphylococcus aureus ATCC 29213; experiment: MIC for standard strain used in saliva antibiotic assay (Examples VII-IX); assay type: cell-based; conditions: Staphylococcus aureus, ATCC29213; nutrient broth, 37° C., 18 hours
Procedure: Each filtered mixture in test tube was inoculated with 0.1 ml of a 1:1,000 dilution of a 12 hour broth culture of Staphylococcus aureus ATCC 29213.
(§1) A row of 6 test tubes each containing 2 ml of nutrient broth with decreasing concentrations of penicillin G potassium from 6.2 to 0.16 mcg/ml, using a serial double dilution method described in a., was prepared and similarly inoculated with 0.1 ml broth culture of Staphylococcus aureus ATCC 29213 as the standard.
(§2) All test tubes were incubated at 37° C. for 18 hours and observed for bacterial growth against an inoculated broth containing neither antibiotic nor saliva samples.
In this study, the drug powder was suspended in one teaspoonful of water and swallowed by the test subjects two hours after breakfast, followed by drinking an 8 Oz. glass of water. The test subjects refrained from drinking or eating for the next three hours. Six samples of saliva were collected from each subject at 30-minute intervals in succession in the next three hours. An aliquot of 0.2 ml from each saliva sample was transferred to 3.8 ml of nutrient broth. The mixture of the latter was forced to pass a bacterial filter. Two (2) ml of the bacteria-free filtrate was pipetted out into a sterile test tube and inoculated with 0.1 ml of a 1:1,000 dilution of a 12 hours broth culture of Staphylococcus aureus ATCC 29213 and incubated at 37° C. for 18 hours. […]

bacteria in human saliva = experiment: Inhibition of bacterial growth in human saliva in vitro (Example IV); assay type: cell-based; conditions: for bacterial growth from treated saliva: 1 h, aerobic blood agar
Procedure: For this study, five healthy adult volunteers, three men and two women, were asked to refrain from drinking and eating for two hours after breakfast. At the end of two hours, about five (5) ml of saliva was obtained from the oral cavity of each volunteer. Aliquots of 0.1 ml of saliva were pipetted immediately from each saliva sample and spread over the surface of two 5% sheep blood agar plates with a sterile plastic loop. One inoculated blood agar plate was incubated in an aerobic atmosphere containing 5% CO2, and the other anaerobically at 37° C. for 18 hours, as untreated controls.
Aliquots of 0.2 ml of the saliva from each volunteer's sample were pipetted into sterile test tubes, and labeled from No. 2 to No. 13. Five equal doses of dry powder of the USP grade penicillin G potassium salt, 200 mg each, were weighed and put into five sterile test tubes, all labeled No. 1. The dry powder of antibiotic was dissolved in 0.4 ml saliva obtained from each of the five volunteers to constitute an initial concentration of antibiotic concentration of […] in saliva. An aliquot of 0.2 ml of the saliva antibiotic solution was pipetted from tube No. 1 into tube No. 2. After having been thoroughly mixed, 0.2 ml of the content in tube No. 2 was pipetted to tube No. 3, and so forth continuously in succession to make a serial double dilution of penicillin G potassium solutions in saliva through tube No. 13. Finally, the test tubes contained different concentrations of penicillin G potassium in the saliva of five volunteers, as follows.
The mixtures of antibiotic and saliva in the test tubes were incubated at 37° C. One hour later, an aliquot of 0.1 ml was pipetted from the content of each tube, first dropped in the center of a blood agar plate and then spread to the periphery of the plate surface. The plates were incubated aerobically at 37° C. with 5% carbon dioxide in the atmosphere for 18 hours and were examined for bacterial growth.

[2] = Local concentrations of penicillin in saliva after penicillin G potassium 50 mg tablet (Example IX); assay type: in vivo, human
Procedure: Five healthy adult volunteers, three men and two women, were selected for this study.
On the day of study, two hours after breakfast, the volunteers were given a single tablet of the drug, placed in the right oral sulcus between the lower gum and the buccal mucosa to be dissolved in a minimum amount of saliva in about six (6) minutes. This loculated pocket of saliva was not to be swallowed and was not to be further diluted by saliva from other parts of the mouth for one hour. At 6 minutes, 20 minutes, 40 minutes and 60 minutes after drug application, an aliquot of 0.01 ml was aspirated from this pocket of saliva and added into a test tube containing 10 ml of nutrient broth to give a 1,000 times dilution. After being mixed well, aliquots of the mixtures of saliva sample and nutrient broth were forced to pass through bacterial filters into sterile test tubes. Thcn 0.8 ml of each 1:1,000 diluted filtrate was pipetted and added to 3.2 ml of nutrient broth to make an additional 5 times dilution in a volume of 4 ml. Two ml was pipetted from the latter to make a serial double dilution of saliva sample in 2 ml of nutrient broth, as described above under a, in 12 test tubes. The dilution factor for the saliva sample in test No. 1 was 5,000 and […] progressively to 1:10,240,000 in test tube No.12.
Each filtered mixture in test tube was inoculated with 0.1 ml of a 1:1,000 dilution of a 12 hour broth culture of Staphyloccus aureus ATCC 29213.
as §1, with “potassium, USP Reference Standard 502508, at 6.2, 3.1, 1.5, 0.75, 0.32, and” for “potassium from 6.2 to”, “Staphyloccus” for “Staphylococcus”
as §2
The test tube of highest number with the highest dilution factor of saliva in nutrient broth in which no bacterial growth was observed was interpreted as containing an equivalent of penicillin G potassium at 0.75 mcg/ml. Using the dilution factors, it was calculated that, after topical application of the drug product, the concentrations of penicillin G potassium in the saliva at the site of medication within the first hour were as follows.

CC1(C)S[C@@H]2[C@H](NC(=O)Cc3ccccc3)C(=O)N2[C@H]1C(=O)O [penicillin G potassium]
MIC [1]: 0.75 mg/L
bacterial growth from treated saliva (bacteria in human saliva; 1 mg/ml): Scattered bacterial colonies began to appear; also recorded: the inhibition is not complete; also recorded: A few surviving or uninhibited bacteria grew into colonies
bacterial growth from treated saliva (bacteria in human saliva; 2 mg/ml or above): No bacterial colonies were visible; also recorded: practically inhibits the growth of all of the salivary bacteria; also recorded: either destroyed or totally inhibited
MIC (bacteria in human saliva; Homo sapiens, read-out: concentration sufficient to kill or inhibit practically all salivary bacteria): 1000 to 2000 mg/L
concentration at 0.1 h ([2]; human, saliva, topical or ocular, 50 mg tablet, 6 min): 240000 to 480000 µg/mL
concentration at 20 min ([2]; human, saliva, topical or ocular, 50 mg tablet, 20 min): 120000 to 240000 µg/mL
concentration at 40 min ([2]; human, saliva, topical or ocular, 50 mg tablet, 40 min): 30000 to 60000 µg/mL
concentration at 1 h ([2]; human, saliva, topical or ocular, 50 mg tablet, 60 min): 7500 to 15000 µg/mL
initial local concentration in saliva ([2]; tablet of 50 mg penicillin G potassium): about 480 mg/ml
local concentration in saliva in one hour ([2]; tablet of 50 mg penicillin G potassium, 60 min): 7.5 to 15 mg/mL

From patent publication US6248718A, “Lesion-directed dry dosage forms of antibacterial agents for the treatment of acute mucosal infections of the oral cavity” (priority 1999, dated 2001)
